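Test compounds were applied to cells in 96-well plates for 48 hours at 5 doses. Definition used: TGI = concentration required for complete inhibition of growth.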
Assays:
Assay in all cases: DTP human tumour cell line panel, 48 h
MOLT-4 leukemia = system: MOLT-4 leukemia
UO-31 renal = system: UO-31 renal
SF-268 CNS = system: SF-268 CNS
HOP-92 NSCLC = system: HOP-92 NSCLC
OVCAR-3 ovarian = system: OVCAR-3 ovarian
CAKI-1 renal = system: CAKI-1 renal
SN12C renal = system: SN12C renal
OVCAR-4 ovarian = system: OVCAR-4 ovarian
SR leukemia = system: SR leukemia
PC-3 prostate = system: PC-3 prostate
UACC-257 melanoma = system: UACC-257 melanoma
COLO 205 colon = system: COLO 205 colon
SF-539 CNS = system: SF-539 CNS
MDA-MB-435 = system: MDA-MB-435
IGROV1 ovarian = system: IGROV1 ovarian
SF-295 CNS = system: SF-295 CNS
SK-MEL-28 melanoma = system: SK-MEL-28 melanoma
SNB-19 CNS = system: SNB-19 CNS
RXF 393 renal = system: RXF 393 renal
NCI/ADR-RES ovarian = system: NCI/ADR-RES ovarian
M14 melanoma = system: M14 melanoma
MCF7 breast = system: MCF7 breast
BT-549 breast = system: BT-549 breast
OVCAR-8 ovarian = system: OVCAR-8 ovarian
MDA-MB-231 breast = system: MDA-MB-231 breast
K-562 leukemia = system: K-562 leukemia
U251 CNS = system: U251 CNS
MALME-3M melanoma = system: MALME-3M melanoma
SW-620 colon = system: SW-620 colon
HL-60(TB) leukemia = system: HL-60(TB) leukemia
CCRF-CEM leukemia = system: CCRF-CEM leukemia
NCI-H23 lung = system: NCI-H23 lung
SK-OV-3 ovarian = system: SK-OV-3 ovarian
LOX IMVI melanoma = system: LOX IMVI melanoma
HS 578T breast = system: HS 578T breast
UACC-62 melanoma = system: UACC-62 melanoma
EKVX NSCLC = system: EKVX NSCLC
ACHN renal = system: ACHN renal
A549 NSCLC = system: A549 NSCLC
HT29 colon = system: HT29 colon
786-0 renal = system: 786-0 renal
HCT-116 colon = system: HCT-116 colon
NCI-H226 lung = system: NCI-H226 lung
SK-MEL-2 melanoma = system: SK-MEL-2 melanoma
HCC-2998 colon = system: HCC-2998 colon
NCI-H522 lung = system: NCI-H522 lung
OVCAR-5 ovarian = system: OVCAR-5 ovarian
NCI-H460 lung = system: NCI-H460 lung
SNB-75 CNS = system: SNB-75 CNS
MDA-N = system: MDA-N
TK-10 renal = system: TK-10 renal
SK-MEL-5 melanoma = system: SK-MEL-5 melanoma
RPMI-8226 leukemia = system: RPMI-8226 leukemia
T-47D breast = system: T-47D breast
HOP-62 NSCLC = system: HOP-62 NSCLC
KM12 colon = system: KM12 colon
HCT-15 colon = system: HCT-15 colon
DU-145 prostate = system: DU-145 prostate

SMILES: CC(C)OP(=O)(CCCCCCCCC/C=C/c1ccc2c(c1)OCCOCCOCCOCCO2)OC(C)C
- TGI (MOLT-4 leukemia): 10.7 µM
- TGI (UO-31 renal): 9.02 µM
- TGI (SF-268 CNS): 16.8 µM
- TGI (HOP-92 NSCLC): 5.8 µM
- TGI (OVCAR-3 ovarian): 10 µM
- TGI (CAKI-1 renal): 11.7 µM
- TGI (SN12C renal): 14.2 µM
- TGI (OVCAR-4 ovarian): 16.2 µM
- TGI (SR leukemia): 15.4 µM
- TGI (PC-3 prostate): 9.51 µM
- TGI (UACC-257 melanoma): 10.2 µM
- TGI (COLO 205 colon): 3.89 µM
- TGI (SF-539 CNS): 12.4 µM
- TGI (MDA-MB-435): 13.6 µM
- TGI (IGROV1 ovarian): 16.2 µM
- TGI (SF-295 CNS): 10.3 µM
- TGI (SK-MEL-28 melanoma): 20.1 µM
- TGI (SNB-19 CNS): 15.2 µM
- TGI (RXF 393 renal): 9.12 µM
- TGI (NCI/ADR-RES ovarian): 10.5 µM
- TGI (M14 melanoma): 13.5 µM
- TGI (MCF7 breast): 11.2 µM
- TGI (BT-549 breast): 9.09 µM
- TGI (OVCAR-8 ovarian): 12.1 µM
- TGI (MDA-MB-231 breast): 12.6 µM
- TGI (K-562 leukemia): 24.1 µM
- TGI (U251 CNS): 7.74 µM
- TGI (MALME-3M melanoma): 13.7 µM
- TGI (SW-620 colon): 14.7 µM
- TGI (HL-60(TB) leukemia): 30.7 µM
- TGI (CCRF-CEM leukemia): 7.5 µM
- TGI (NCI-H23 lung): 8.21 µM
- TGI (SK-OV-3 ovarian): 9.19 µM
- TGI (LOX IMVI melanoma): 4.93 µM
- TGI (HS 578T breast): 9.02 µM
- TGI (UACC-62 melanoma): 14.8 µM
- TGI (EKVX NSCLC): 11.8 µM
- TGI (ACHN renal): 11.8 µM
- TGI (A549 NSCLC): 13.6 µM
- TGI (HT29 colon): 11 µM
- TGI (786-0 renal): 14.1 µM
- TGI (HCT-116 colon): 11.2 µM
- TGI (NCI-H226 lung): 9.24 µM
- TGI (SK-MEL-2 melanoma): 8.69 µM
- TGI (HCC-2998 colon): 14.2 µM
- TGI (NCI-H522 lung): 10.1 µM
- TGI (OVCAR-5 ovarian): 11.4 µM
- TGI (NCI-H460 lung): 7.37 µM
- TGI (SNB-75 CNS): 10.4 µM
- TGI (MDA-N): 13.5 µM
- TGI (TK-10 renal): 21.4 µM
- TGI (SK-MEL-5 melanoma): 7.76 µM
- TGI (RPMI-8226 leukemia): > 100 µM
- TGI (T-47D breast): 9.11 µM
- TGI (HOP-62 NSCLC): 6.15 µM
- TGI (KM12 colon): 11 µM
- TGI (HCT-15 colon): 10.3 µM
- TGI (DU-145 prostate): 15.2 µM

SMILES: Cn1c2ccccc2c(=NNc2ccc(S(N)(=O)=O)cc2)c2ccccc21
- TGI (MOLT-4 leukemia): 26.9 µM
- TGI (UO-31 renal): 41.1 µM
- TGI (SF-268 CNS): > 50 µM
- TGI (HOP-92 NSCLC): 35.8 µM
- TGI (OVCAR-3 ovarian): > 50 µM
- TGI (CAKI-1 renal): > 50 µM
- TGI (SN12C renal): > 50 µM
- TGI (OVCAR-4 ovarian): > 50 µM
- TGI (SR leukemia): 25.6 µM
- TGI (PC-3 prostate): > 50 µM
- TGI (UACC-257 melanoma): 49.8 µM
- TGI (COLO 205 colon): > 50 µM
- TGI (SF-539 CNS): > 50 µM
- TGI (MDA-MB-435): > 50 µM
- TGI (IGROV1 ovarian): > 50 µM
- TGI (SF-295 CNS): > 50 µM
- TGI (SK-MEL-28 melanoma): > 50 µM
- TGI (SNB-19 CNS): > 50 µM
- TGI (RXF 393 renal): 43.7 µM
- TGI (NCI/ADR-RES ovarian): > 50 µM
- TGI (M14 melanoma): > 50 µM
- TGI (MCF7 breast): 43.1 µM
- TGI (BT-549 breast): > 50 µM
- TGI (OVCAR-8 ovarian): > 50 µM
- TGI (MDA-MB-231 breast): > 50 µM
- TGI (K-562 leukemia): 40.4 µM
- TGI (U251 CNS): > 50 µM
- TGI (MALME-3M melanoma): 43.2 µM
- TGI (SW-620 colon): > 50 µM
- TGI (HL-60(TB) leukemia): 32 µM
- TGI (CCRF-CEM leukemia): > 50 µM
- TGI (NCI-H23 lung): > 50 µM
- TGI (SK-OV-3 ovarian): > 50 µM
- TGI (LOX IMVI melanoma): 38.1 µM
- TGI (HS 578T breast): > 50 µM
- TGI (UACC-62 melanoma): > 50 µM
- TGI (EKVX NSCLC): > 50 µM
- TGI (ACHN renal): 29 µM
- TGI (A549 NSCLC): > 50 µM
- TGI (HT29 colon): > 50 µM
- TGI (786-0 renal): > 50 µM
- TGI (HCT-116 colon): > 50 µM
- TGI (NCI-H226 lung): 48.4 µM
- TGI (SK-MEL-2 melanoma): 34.3 µM
- TGI (HCC-2998 colon): 38.7 µM
- TGI (NCI-H522 lung): > 50 µM
- TGI (OVCAR-5 ovarian): > 50 µM
- TGI (NCI-H460 lung): 34.3 µM
- TGI (SNB-75 CNS): 46.6 µM
- TGI (MDA-N): > 50 µM
- TGI (TK-10 renal): > 50 µM
- TGI (SK-MEL-5 melanoma): 22.5 µM
- TGI (RPMI-8226 leukemia): > 50 µM
- TGI (T-47D breast): 34.8 µM
- TGI (HOP-62 NSCLC): > 50 µM
- TGI (KM12 colon): > 50 µM
- TGI (HCT-15 colon): > 50 µM
- TGI (DU-145 prostate): > 50 µM
